# Test results as given in patent publication EP4796536A1, “CRYSTAL FORMS OF COMPOUND HAVING FUSED FIVE- AND SIX-MEMBERED RINGS, PREPARATION METHOD THEREFOR, AND USE THEREOF” (Hangzhou Polymed Biopharmaceuticals, Inc., priority 2023, dated 2025).
# Like-named read-outs stand apart in the source and are kept apart here.
# Legend:
# [1] = Hygroscopicity by dynamic vapor sorption (DVS); format: physicochemical; details: for hygroscopic weight gain: 80% RH, 25°C; for hygroscopicity evaluation: DVS, based on weight gain at 80% RH
# Description: Samples are analyzed for hygroscopicity using Intrinsic DVS ([…], UK). Approximately 10 to 30 mg of sample is used for testing. The testing chamber is controlled at a temperature of 25 ± 1°C with the specific testing parameters shown below: […]
# [2] = Mechanical stability: dry grinding, wet grinding, tableting (XRPD); format: physicochemical; details: for crystal form of the solid (XRPD): wet grinding, and tableting
# Description: Dry grinding: approximately 10 mg of the starting sample was ground for 3 minutes in a mortar, and then subjected to XRPD testing.
# Wet grinding: approximately 10 mg of the starting sample was ground with 1 to 2 drops of solvent for 3 minutes in a mortar, and then subjected to XRPD testing.
# Tableting experiment: approximately 10 mg of the starting sample was compressed at 20 MPa for 3 minutes, and then subjected to XRPD testing.
# [3] = Solubility of crystal forms in buffers, biorelevant media and water (HPLC, XRPD of residual solid); format: physicochemical; details: for pH (24 h): 5 mg/mL suspension stirred at 37°C, pH of the solution at 24 h; for Solubility at 37°C (mg/mL) 2 h: 120 min; for Solubility at 37°C (mg/mL) 24 h / solubility: 1440 min; for solubility at 2 h: read-out: Solubility at 37°C (mg/mL) 2 h
# Description: The solubility of the two crystal forms at 2 hours and 24 hours and the pH of the solution at 24 hours were tested. The solid was filtered, and the resulting solid was tested for XRPD.
# [4] = Physicochemical stability of crystal forms (HPLC purity, XRPD); details: for change in the crystal form after stability testing: all stability conditions
# [5] = Dry grinding, 3 minutes in a mortar, no solvent
# [6] = Tableting, 20 MPa for 3 minutes, solvent EA
# [7] = Wet grinding, solvent EtOH, 3 minutes in a mortar
# [8] = Wet grinding, solvent Water, 3 minutes in a mortar
# [9] = after grinding and tableting experiments, versus starting sample
# [10] = after wet grinding and tableting
# [11] = FeSSIF, stirring at 37°C for 24 hours
# [12] = XRPD of residual solid after stirring in FaSSIF at 37°C for 24 hours
# [13] = XRPD of residual solid after stirring in FeSSIF at 37°C for 24 hours
# [14] = XRPD of residual solid after stirring in SGF at 37°C for 24 hours
# [15] = XRPD of residual solid after stirring in Water at 37°C for 24 hours
# [16] = XRPD of residual solid after stirring in pH 1.2 buffer at 37°C for 24 hours
# [17] = XRPD of residual solid after stirring in pH 3.0 buffer at 37°C for 24 hours
# [18] = XRPD of residual solid after stirring in pH 4.5 buffer at 37°C for 24 hours
# [19] = XRPD of residual solid after stirring in pH 6.8 buffer at 37°C for 24 hours
# [20] = XRPD of residual solid after stirring in pH 7.4 buffer at 37°C for 24 hours
structure (smiles),measurement,setting,value
"COc1cc2nn(C3CC4(CCN(C(=O)C5CCN(c6ccc7c(c6)C(=O)N(C6CCC(=O)NC6=O)C7=O)CC5)CC4)C3)cc2cc1NC(=O)c1cccc(C(F)(F)F)n1 (single isomer, unassigned) [crystal form A]",hygroscopic weight gain,[1],2.213%
same,hygroscopicity evaluation,[1],hygroscopic
same,crystal form after DVS testing,[1],no change in the crystal form
same,Solid color,[2]; [5],"Slightly deepened, yellow"
same,XRPD results,[2]; [5],Crystal form A (low degree of crystallinity)
same,Solid color,[2]; [6],"Slightly deepened, yellow"
same,XRPD results,[2]; [6],Crystal form A
same,Solid color,[2]; [7],"Slightly deepened, yellow"
same,XRPD results,[2]; [7],Crystal form A
same,Solid color,[2]; [8],"Slightly deepened, yellow"
same,XRPD results,[2]; [8],Crystal form A
same,degree of crystallinity of the solid,[2]; after dry grinding,reduction in the degree of crystallinity
same,crystal form of the solid (XRPD),[2]; after dry grinding,no change in the crystal form
same,Solid color,[2]; [9],slightly darker
same,degree of crystallinity of the solid,[2]; [10],almost no change in the degree of crystallinity
same,pH (24 h),[3]; FaSSIF,6.570
same,Solubility at 37°C (mg/mL) 2 h,"[3]; FaSSIF, 37°C",0.00461 mg/mL
same,Solubility at 37°C (mg/mL) 24 h,"[3]; FaSSIF, 37°C, 24 h",0.00285 mg/mL
same,solubility,[3]; [11],approximately 0.004 mg/mL
same,pH (24 h),[3]; FeSSIF,5.032
same,Solubility at 37°C (mg/mL) 2 h,"[3]; FeSSIF, 37°C",0.00391 mg/mL
same,Solubility at 37°C (mg/mL) 24 h,"[3]; FeSSIF, 37°C, 24 h",0.00414 mg/mL
same,pH (24 h),[3]; SGF,1.225
same,pH (24 h),[3]; Water,7.311
same,Solubility at 37°C (mg/mL) 24 h,"[3]; Water, 37°C, 24 h",0.00075 mg/mL
same,Crystal form,[3]; [12],Crystal form A
same,Crystal form,[3]; [13],Crystal form A
same,Crystal form,[3]; [14],Crystal form A
same,Crystal form,[3]; [15],Crystal form A
same,Crystal form,[3]; [16],Crystal form A
same,Crystal form,[3]; [17],Crystal form A
same,Crystal form,[3]; [18],Crystal form A
same,Crystal form,[3]; [19],Crystal form A
same,Crystal form,[3]; [20],Crystal form A
same,solubility at 24 h,"[3]; fassif, stirring at 37°C for 24 hours, read-out: solubility",~0.004 mg/mL
same,pH (24 h),[3]; pH 1.2 buffer,1.214
same,pH (24 h),[3]; pH 3.0 buffer,3.078
same,pH (24 h),[3]; pH 4.5 buffer,4.584
same,Solubility at 37°C (mg/mL) 2 h,"[3]; pH 4.5 buffer, 37°C",0.00026 mg/mL
same,pH (24 h),[3]; pH 6.8 buffer,6.833
same,pH (24 h),[3]; pH 7.4 buffer,7.428
same,solubility at 2 h,"[3]; water, 37°C",0.00052 mg/mL
same,Purity (%),"[4]; 25°C/60% RH, open, 1 week",96.38%
same,XRPD,"[4]; 25°C/60% RH, open, 1 week",Unchanged
same,Purity (%),"[4]; 40°C/75% RH, open, 1 week",96.39%
same,XRPD,"[4]; 40°C/75% RH, open, 1 week",Unchanged
same,Purity (%),"[4]; 60°C, closed, 1 week",96.40%
same,XRPD,"[4]; 60°C, closed, 1 week",Unchanged
same,Purity (%),[4]; Initial,96.41%
same,XRPD,[4]; Initial,Crystal form A
same,Purity (%),"[4]; Light, closed, 10 days",96.41%
same,XRPD,"[4]; Light, closed, 10 days",Unchanged
same,Purity (%),"[4]; Light, control, 10 days",96.42%
same,XRPD,"[4]; Light, control, 10 days",Unchanged
same,change in the crystal form after stability testing,[4],no change in the crystal form
same,degradation,"[4]; all stability conditions (60°C, 25°C/60% RH, 40°C/75% RH 1 week; light 10 days)",no significant degradation
"COc1cc2nn(C3CC4(CCN(C(=O)C5CCN(c6ccc7c(c6)C(=O)N(C6CCC(=O)NC6=O)C7=O)CC5)CC4)C3)cc2cc1NC(=O)c1cccc(C(F)(F)F)n1 (single isomer, unassigned) [crystal form I]",hygroscopic weight gain,[1],0.3629%
same,hygroscopicity evaluation,[1],slightly hygroscopic
same,crystal form after DVS testing,[1],no change in the crystal form
same,Solid color,[2]; [5],"Yellow, essentially no change"
same,XRPD results,[2]; [5],Crystal form I (low degree of crystallinity)
same,Solid color,[2]; [6],"Yellow, essentially no change"
same,XRPD results,[2]; [6],Crystal form I
same,Solid color,[2]; [7],"Yellow, essentially no change"
same,XRPD results,[2]; [7],Crystal form I
same,Solid color,[2]; [8],"Yellow, essentially no change"
same,XRPD results,[2]; [8],Crystal form I
same,degree of crystallinity of the solid,[2]; after dry grinding,reduction in the degree of crystallinity
same,crystal form of the solid (XRPD),[2]; after dry grinding,no change in the crystal form
same,Solid color,[2]; [9],essentially no change in the solid color
same,degree of crystallinity of the solid,[2]; [10],almost no change in the degree of crystallinity
same,pH (24 h),[3]; FaSSIF,6.501
same,Solubility at 37°C (mg/mL) 2 h,"[3]; FaSSIF, 37°C",0.00141 mg/mL
same,solubility,[3]; [11],approximately 0.01 mg/mL
same,pH (24 h),[3]; FeSSIF,5.085
same,Solubility at 37°C (mg/mL) 24 h,"[3]; FeSSIF, 37°C, 24 h",0.01099 mg/mL
same,pH (24 h),[3]; SGF,1.266
same,pH (24 h),[3]; Water,6.749
same,Solubility at 37°C (mg/mL) 2 h,"[3]; Water, 37°C",0.00089 mg/mL
same,Solubility at 37°C (mg/mL) 24 h,"[3]; Water, 37°C, 24 h",0.00025 mg/mL
same,Crystal form,[3]; [12],Crystal form I
same,Crystal form,[3]; [13],Crystal form I
same,Crystal form,[3]; [14],Crystal form I
same,Crystal form,[3]; [15],Crystal form I
same,Crystal form,[3]; [16],Crystal form I
same,Crystal form,[3]; [17],Crystal form I
same,Crystal form,[3]; [18],Crystal form I
same,Crystal form,[3]; [19],Crystal form I
same,Crystal form,[3]; [20],Crystal form I
same,solubility at 2 h,"[3]; buffer, pH 1.2, pH 1.2 buffer, 37°C",0.00084 mg/mL
same,solubility at 24 h,"[3]; buffer, pH 1.2, pH 1.2 buffer, 37°C, 24 h, read-out: Solubility at 37°C (mg/mL) 24 h",0.00081 mg/mL
same,solubility at 2 h,"[3]; buffer, pH 3, pH 3.0 buffer, 37°C",0.00048 mg/mL
same,solubility at 24 h,"[3]; buffer, pH 3, pH 3.0 buffer, 37°C, 24 h, read-out: Solubility at 37°C (mg/mL) 24 h",0.00077 mg/mL
same,solubility at 2 h,"[3]; buffer, pH 4.5, pH 4.5 buffer, 37°C",0.00019 mg/mL
same,solubility at 24 h,"[3]; buffer, pH 4.5, pH 4.5 buffer, 37°C, 24 h, read-out: Solubility at 37°C (mg/mL) 24 h",0.00087 mg/mL
same,solubility at 2 h,"[3]; buffer, pH 6.8, pH 6.8 buffer, 37°C",0.00046 mg/mL
same,solubility at 24 h,"[3]; buffer, pH 6.8, pH 6.8 buffer, 37°C, 24 h, read-out: Solubility at 37°C (mg/mL) 24 h",0.00084 mg/mL
same,solubility at 2 h,"[3]; buffer, pH 7.4, pH 7.4 buffer, 37°C",0.00101 mg/mL
same,solubility at 24 h,"[3]; buffer, pH 7.4, pH 7.4 buffer, 37°C, 24 h, read-out: Solubility at 37°C (mg/mL) 24 h",0.00079 mg/mL
same,solubility at 24 h,"[3]; fassif, 37°C, 24 h, read-out: Solubility at 37°C (mg/mL) 24 h",0.00148 mg/mL
same,solubility at 2 h,"[3]; fessif, 37°C",0.004 mg/mL
same,pH (24 h),[3]; pH 1.2 buffer,1.234
same,pH (24 h),[3]; pH 3.0 buffer,3.145
same,pH (24 h),[3]; pH 4.5 buffer,4.583
same,pH (24 h),[3]; pH 6.8 buffer,6.805
same,pH (24 h),[3]; pH 7.4 buffer,7.439
same,solubility at 2 h,"[3]; sgf, 37°C",0.00158 mg/mL
same,solubility at 24 h,"[3]; sgf, 37°C, 24 h, read-out: Solubility at 37°C (mg/mL) 24 h",0.00376 mg/mL
same,Purity (%),"[4]; 25°C/60% RH, open, 1 week",98.96%
same,XRPD,"[4]; 25°C/60% RH, open, 1 week",Unchanged
same,Purity (%),"[4]; 40°C/75% RH, open, 1 week",98.96%
same,XRPD,"[4]; 40°C/75% RH, open, 1 week",Unchanged
same,Purity (%),"[4]; 60°C, closed, 1 week",98.80%
same,XRPD,"[4]; 60°C, closed, 1 week",Unchanged
same,Purity (%),[4]; Initial,98.97%
same,Purity (%),"[4]; Light, closed, 10 days",98.96%
same,XRPD,"[4]; Light, closed, 10 days",Unchanged
same,Purity (%),"[4]; Light, control, 10 days",98.97%
same,XRPD,"[4]; Light, control, 10 days",Unchanged
same,change in the crystal form after stability testing,[4],no change in the crystal form
same,degradation,[4]; closed stability chamber at 60°C for 1 week,0.17%
same,degradation,"[4]; other stability conditions (25°C/60% RH, 40°C/75% RH 1 week; light 10 days)",no significant degradation
